Among the data in patent US20250171437A1 (Agios Pharmaceuticals,Inc., priority 2022, published 2025) are AC50 values, retold here.

As usually defined, the AC50 is the concentration giving half of the maximal activity seen.

The structures appear in SMILES notation.

One assay has as its target T1, human PAH with the R408W mutation (A375 R408W cells) (Homo sapiens, UniProt P00439, R408W).
T1 construct: expressed in transfected cells
T1 sequence (P00439 1-452 R408W): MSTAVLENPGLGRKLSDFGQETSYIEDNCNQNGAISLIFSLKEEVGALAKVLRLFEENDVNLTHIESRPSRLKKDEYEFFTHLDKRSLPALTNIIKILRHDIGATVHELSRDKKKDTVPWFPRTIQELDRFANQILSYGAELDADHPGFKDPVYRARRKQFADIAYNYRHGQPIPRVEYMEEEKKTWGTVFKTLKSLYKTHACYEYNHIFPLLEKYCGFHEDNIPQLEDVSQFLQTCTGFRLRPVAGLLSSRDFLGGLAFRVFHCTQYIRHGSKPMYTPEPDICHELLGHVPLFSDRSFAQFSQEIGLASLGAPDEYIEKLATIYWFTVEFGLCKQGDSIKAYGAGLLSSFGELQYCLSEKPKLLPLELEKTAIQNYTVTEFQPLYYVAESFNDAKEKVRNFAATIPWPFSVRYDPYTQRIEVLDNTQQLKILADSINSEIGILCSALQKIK
Nature of the assay: Cell Based Phenylalanine Flux Assay. The note with it: A375 R408W cells; 24 hrs with compound, then 20 μM sepiapterin and 800 μM 13C9,15N-Phenylalanine for 4 hours; 13C-Tyrosine by LC-MS; average where tested multiple times. The method in brief: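 Phenylalanine-to-tyrosine flux is measured in A375 cells carrying stable human R408W PAH. After 24 h compound exposure, 13C9,15N-Phe (800 μM) with sepiapterin (20 μM) is supplied for 4 h and media 13C-Tyr is read by LC-MS; AC50s are binned.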
For `O=C(N1CCc2[nH]cnc2[C@H]1c1nc2cc(F)ccc2o1)C1(c2cnco2)CC1` [Example 917, (S)-(4-(5-fluorobenzo[d]oxazol-2-yl)-6,7-dihydro-1H-imidazo[4,5-c]pyridin-5(4H)-yl)(1-(oxazol-5-yl)cyclopropyl)methanone], the concentration at half-maximal activity (AC50) lay in the range of 1000 to 5000 nM.
`CC(C)(O)c1nc(C(F)F)c(C(=O)N2CCc3[nH]cnc3[C@H]2c2nc3c(C(F)(F)F)cccc3o2)o1` [Example 463, (S)-(4-(difluoromethyl)-2-(2-hydroxypropan-2-yl)oxazol-5-yl)(4-(4-(trifluoromethyl)benzo[d]oxazol-2-yl)-6,7-dihydro-1H-imidazo[4,5-c]pyridin-5(4H)-yl)methanone]: the AC50 is no more than 500 nM.
On to `CC(C)(O)c1nc(C(F)F)c(C(=O)N2CCc3[nH]cnc3[C@@H]2c2nc3cc(Br)cc(F)c3o2)o1` [Example 572, (R)-(4-(5-bromo-7-fluorobenzo[d]oxazol-2-yl)-6,7-dihydro-1H-imidazo[4,5-c]pyridin-5(4H)-yl)(4-(difluoromethyl)-2-(2-hydroxypropan-2-yl)oxazol-5-yl)methanone], for which the concentration at half-maximal activity (AC50) was no more than 500 nM.
As to `O=C(c1cnco1)N1CCc2[nH]cnc2[C@H]1c1nc2c(F)ccc(F)c2o1` [Example 483, (S)-(4-(4,7-difluorobenzo[d]oxazol-2-yl)-6,7-dihydro-1H-imidazo[4,5-c]pyridin-5(4H)-yl)(oxazol-5-yl)methanone], the half-maximal activity concentration (AC50) was 500 to 1000 nM.
Turning to `O=C(c1ocnc1C(F)F)N1CCc2[nH]cnc2[C@@H]1c1nc2c(C(F)(F)F)cccc2o1` [Example 466, (R)-(4-(difluoromethyl)oxazol-5-yl)(4-(4-(trifluoromethyl)benzo[d]oxazol-2-yl)-6,7-dihydro-1H-imidazo[4,5-c]pyridin-5(4H)-yl)methanone], the concentration at half-maximal activity (AC50) lay in the range of 500 to 1000 nM.
In the case of `O=C(c1ocnc1CC(F)F)N1CCc2[nH]cnc2[C@@H]1c1nc2cc(F)ccc2o1` [Example 866, (R)-(4-(2,2-difluoroethyl)oxazol-5-yl)(4-(5-fluorobenzo[d]oxazol-2-yl)-6,7-dihydro-1H-imidazo[4,5-c]pyridin-5(4H)-yl)methanone], the AC50 lay in the range of 500 to 1000 nM.
Consider `O=C(CC1CC1)N1CCc2[nH]cnc2[C@H]1c1nc2ccc(Br)cc2o1` [Example 3, (S)-1-(4-(6-bromobenzo[d]oxazol-2-yl)-6,7-dihydro-1H-imidazo[4,5-c]pyridin-5(4H)-yl)-2-cyclopropylethanone], for which the AC50 is no more than 500 nM.
Turning to `[2H][C@@]1(c2nc3cc(F)ccc3o2)c2nc[nH]c2CCN1C(=O)c1oc(C(C)(C)O)nc1C(F)F` [Example 905], the AC50 is no more than 500 nM.
Turning to `O=C(c1ocnc1C(F)F)N1CCc2[nH]cnc2[C@H]1c1nc2cccc(Br)c2o1` [Example 461, (S)-(4-(7-bromobenzo[d]oxazol-2-yl)-6,7-dihydro-1H-imidazo[4,5-c]pyridin-5(4H)-yl)(4-(difluoromethyl)oxazol-5-yl)methanone], the concentration at half-maximal activity (AC50) is no more than 500 nM.
In the case of `Cc1ccc(-c2nnc(C(=O)N3CCc4[nH]cnc4[C@H]3c3nc4cc(F)ccc4o3)o2)nc1` [Example 126, (S)-(4-(5-fluorobenzo[d]oxazol-2-yl)-6,7-dihydro-1H-imidazo[4,5-c]pyridin-5(4H)-yl)(5-(5-methylpyridin-2-yl)-1,3,4-oxadiazol-2-yl)methanone], the concentration at half-maximal activity (AC50) is 500 to 1000 nM.

The same assay, now with this note: A375 cells expressing R408W PAH; 24 hrs with compound, then 20 μM sepiapterin and 800 μM 13C9,15N-Phenylalanine for 4 hours; 13C-Tyrosine by LC-MS; average where tested multiple times.
As for `Cc1cccc2nc(C3c4nc[nH]c4CCN3C(=O)c3cc(C(C)(C)C)nn3C)oc12` (stereo not drawn), the concentration at half-maximal activity (AC50) is 1000 to 5000 nM.
For `O=C(c1ccn(CC(F)F)n1)N1CCc2[nH]cnc2C1c1nc2cccc(F)c2o1` (stereo not drawn), the AC50 lay within 1000 to 5000 nM.
For `O=C(c1nnc(-c2cnn(C(F)F)c2)o1)N1CCc2[nH]cnc2C1c1nc2cc(C(F)(F)F)ccc2o1` (stereo not drawn), the AC50 was no less than 5000 nM.
Take `O=C(c1cnco1)N1CCc2[nH]cnc2C1c1nc2c(F)cc(F)cc2o1` (stereo not drawn): the AC50 fell in the range of 1000 to 5000 nM.
On the same count and under the same terms, then `Cc1nnc(C(=O)N2CCc3[nH]cnc3C2c2nc3c(F)ccc(F)c3o2)o1` (stereo not drawn), with 1000 to 5000 nM.
